Test results as given in publication PMC7441158 (Nature Communications, 2020).

Assays:
[1] = Half-life of native and glycosylated GLP-1 isoforms in rats; details: anesthetized male Wistar rats, i.v. bolus 20 nmol/kg; for half-life t1/2 in circulation: n = 8 per group, total GLP-1 in plasma (assay against amidated C-terminus: intact 7–36 amide and metabolites), one-phase decay, linear model on ln-transformed data; for detectability in circulation after injection (in words): total GLP-1 assay, plasma sampled up to 60 min
Experimental: Male Wistar rats (≈250 g) were obtained from Janvier (Saint Berthevin Cedex, France) and housed in pairs under standard conditions with ad libitum access to chow and water. Rats were acclimatized for at least 1 week before the study. Studies were carried out on two occasions, matching on each occasion the number of rats in each group, while at the same time avoiding rats from the same cage receiving the same test solution. […] On the day of study, non-fasted rats were anesthetized by a subcutaneous injection with Hypnorm/Midazolam (0.3 ml per 100 g body weight) and placed on a heated operating table (37 °C). The abdominal cavity was opened by a midline incision and a plastic catheter was inserted in the portal vein. Blood was collected (∼300 µl per timepoint) through the catheter into ice cold EDTA-coated tubes that were immediately placed one ice. Samples were collected at timepoint −5, 0, 1, 2, 5, 10, 15, 25, 45, and 60 min. In between samples, ∼200 µL PBS were injected to flush the catheter and replace lost fluid. […] At end of study, rats were sacrificed by diaphragm perforation.
Only data points represented by n > 4 were included in the analysis. To test the difference in rate constant (k), a multiple linear model (lm) was fitted to the pooled data with glycoform set as interaction (lm, Concentration ∼ Timepoint * Glycoform).

[2] = intact GLP-1 (7–36 amide); cited from earlier work
neprilysin (NEP) [3] = biological target: T1, neprilysin (NEP) (Homo sapiens, UniProt P08473); assay: In vitro degradation by neprilysin, MALDI-TOF timecourse assay; format: in vitro ADME; details: sialylated ST O-glycan structure, 15 µM peptide, 37 °C, pH 9.0, NEP 20 ng/μL (PYY), 150 pg/μL (GAL)
T1 construct: purchased R&D Systems
Experimental: Recombinant protease assays were performed in a MALDI-TOF timecourse assay. […] The amount of enzyme used was optimized to fully digest the non-glycosylated peptide hormone of interest within 1 h of incubation.
MALDI-TOF-MS was performed in linear positive mode on a Bruker Autoflex instrument (Bruker Daltonik GmbH, Bremen, Germany) by mixing the quenched aliquots with a saturated solution of α-Cyano-4-hydroxycinnamic acid in ACN/H2O/TFA (70:30:0.1) at a 1:1 ratio on a target steel plate.

neprilysin (NEP) [4] = assay: NEP (R&D Systems) in 50 mM Tris, 0.05% Brij-35, pH 9.0; details: 37 °C, up to 24 h
[5] = cited from earlier work
[6] = system: dipeptidyl peptidase IV (DPP-IV); assay: DPP-IV (R&D Systems) in 50 mM Tris, pH 8.0; details: 37 °C, up to 24 h

T1 sequence (P08473 whole entry, species assumed): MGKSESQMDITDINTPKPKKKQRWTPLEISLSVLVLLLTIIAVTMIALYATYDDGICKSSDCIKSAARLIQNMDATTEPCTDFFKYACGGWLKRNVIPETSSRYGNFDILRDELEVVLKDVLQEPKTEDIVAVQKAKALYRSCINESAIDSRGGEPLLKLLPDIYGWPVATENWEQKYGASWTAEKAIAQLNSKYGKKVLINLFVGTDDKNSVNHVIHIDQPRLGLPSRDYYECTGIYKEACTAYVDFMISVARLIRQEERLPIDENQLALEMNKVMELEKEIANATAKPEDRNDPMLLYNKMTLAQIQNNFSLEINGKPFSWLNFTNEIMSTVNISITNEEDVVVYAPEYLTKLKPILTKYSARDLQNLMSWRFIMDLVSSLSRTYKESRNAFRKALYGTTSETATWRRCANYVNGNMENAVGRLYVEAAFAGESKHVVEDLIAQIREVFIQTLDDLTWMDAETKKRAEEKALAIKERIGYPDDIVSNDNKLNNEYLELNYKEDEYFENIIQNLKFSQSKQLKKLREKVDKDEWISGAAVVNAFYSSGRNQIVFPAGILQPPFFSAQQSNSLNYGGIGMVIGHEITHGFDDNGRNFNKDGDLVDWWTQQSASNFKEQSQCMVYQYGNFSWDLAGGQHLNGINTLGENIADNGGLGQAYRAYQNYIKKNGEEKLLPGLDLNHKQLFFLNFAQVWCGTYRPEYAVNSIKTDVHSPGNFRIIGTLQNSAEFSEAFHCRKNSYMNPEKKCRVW

Compound	half-life t1/2 in circulation [1] [min]	detectability in circulation after injection (in words) [1]	not cleaved (neprilysin (NEP) [4])	further results
CC[C@H](C)[C@H](NC(=O)[C@H](Cc1ccccc1)NC(=O)[C@H](CCC(=O)O)NC(=O)[C@H](CCCCN)NC(=O)[C@H](C)NC(=O)[C@H](C)NC(=O)[C@H](CCC(N)=O)NC(=O)CNC(=O)[C@H](CCC(=O)O)NC(=O)[C@H](CC(C)C)NC(=O)[C@H](Cc1ccc(O)cc1)NC(=O)[C@H](CO)NC(=O)[C@H](CO)NC(=O)[C@@H](NC(=O)[C@H](CC(=O)O)NC(=O)[C@H](CO)NC(=O)[C@@H](NC(=O)[C@H](Cc1ccccc1)NC(=O)[C@@H](NC(=O)CNC(=O)[C@H](CCC(=O)O)NC(=O)[C@H](C)NC(=O)[C@@H](N)Cc1c[nH]cn1)[C@@H](C)O)[C@@H](C)O[C@H]1O[C@H](CO)[C@H](O)[C@H](O[C@@H]2O[C@H](CO)[C@H](O)[C@H](O[C@]3(C(=O)O)C[C@H](O)[C@@H](NC(C)=O)[C@H]([C@H](O)[C@H](O)CO)O3)[C@H]2O)[C@H]1NC(C)=O)C(C)C)C(=O)N[C@@H](C)C(=O)N[C@@H](Cc1c[nH]c2ccccc12)C(=O)N[C@@H](CC(C)C)C(=O)N[C@H](C(=O)N[C@@H](CCCCN)C(=O)NCC(=O)N[C@@H](CCCNC(=N)N)C(N)=O)C(C)C [GLP-1 ST]	22.7	readily detectable in circulation even after 60 min		
CC[C@H](C)[C@H](NC(=O)[C@H](Cc1ccccc1)NC(=O)[C@H](CCC(=O)O)NC(=O)[C@H](CCCCN)NC(=O)[C@H](C)NC(=O)[C@H](C)NC(=O)[C@H](CCC(N)=O)NC(=O)CNC(=O)[C@H](CCC(=O)O)NC(=O)[C@H](CC(C)C)NC(=O)[C@H](Cc1ccc(O)cc1)NC(=O)[C@H](CO)NC(=O)[C@H](CO)NC(=O)[C@@H](NC(=O)[C@H](CC(=O)O)NC(=O)[C@H](CO)NC(=O)[C@@H](NC(=O)[C@H](Cc1ccccc1)NC(=O)[C@@H](NC(=O)CNC(=O)[C@H](CCC(=O)O)NC(=O)[C@H](C)NC(=O)[C@@H](N)Cc1c[nH]cn1)[C@@H](C)O)[C@@H](C)O)C(C)C)C(=O)N[C@@H](C)C(=O)N[C@@H](Cc1c[nH]c2ccccc12)C(=O)N[C@@H](CC(C)C)C(=O)N[C@H](C(=O)N[C@@H](CCCCN)C(=O)NCC(=O)N[C@@H](CCCNC(=N)N)C(N)=O)C(C)C [GLP-1, glucagon-like peptide 1, reference compound]	2.7	undetectable after the 15 min timepoint		half-life in circulation, literature [2]: ~ 2 min
CC(=O)N[C@H]1[C@@H](OC[C@H](NC(=O)[C@H](Cc2ccccc2)NC(=O)[C@H](CO)NC(=O)[C@H](CCCNC(=N)N)NC(=O)[C@H](Cc2c[nH]cn2)NC(=O)[C@H](CC(N)=O)NC(=O)CNC(=O)[C@@H](NC(=O)[C@H](C)NC(=O)[C@H](Cc2c[nH]cn2)NC(=O)[C@@H]2CCCN2C(=O)CNC(=O)[C@H](CC(C)C)NC(=O)[C@H](CC(C)C)NC(=O)[C@H](Cc2ccc(O)cc2)NC(=O)CNC(=O)[C@H](C)NC(=O)[C@H](CO)NC(=O)[C@H](CC(N)=O)NC(=O)[C@H](CC(C)C)NC(=O)[C@@H](NC(=O)[C@H](Cc2c[nH]c3ccccc23)NC(=O)CN)[C@@H](C)O)C(C)C)C(=O)N[C@@H](CC(=O)O)C(=O)N[C@@H](CCCCN)C(=O)N[C@@H](CC(N)=O)C(=O)NCC(=O)N[C@@H](CC(C)C)C(=O)N[C@H](C(=O)N[C@@H](CO)C(=O)O)[C@@H](C)O)O[C@H](CO)[C@H](O)[C@@H]1O[C@@H]1O[C@H](CO)[C@H](O)[C@H](O[C@]2(C(=O)O)C[C@H](O)[C@@H](NC(C)=O)[C@H]([C@H](O)[C@H](O)CO)O2)[C@H]1O [Galanin ST]				full-length peptide after incubation with NEP (in words) (neprilysin (NEP) [3]): readily detectable after 24 h
HAEGTFTSDVSSYLEGQAAKEFIAWLVKGR			−: not susceptible to degradation	fragment found [5]: 9–36 amide, major; not cleaved [6]: −: not susceptible to degradation
HSDAVFTDNYTRLRKQMAVKKYLNSILN			−: not susceptible to degradation	
HSDGTFTSELSRLREGARLQRLLQGLV			−: not susceptible to degradation	
